Measurements taken from patent US12343326B2, “Psychoactive medicines and their use for treating psychiatric and neurological conditions and disorders” (Transcend Therapeutics, Inc., priority 2021, dated 2025).
Like-named read-outs stand apart in the source and are kept apart here.

Assays:
[1] = tested on: Male Sprague Dawley rats; assay: Forced Swim Test (FST); format: in vivo, rat
Source text: The Forced Swim Test (FST) is a classic, and the most used preclinical behavioral assay to screen compounds with antidepressant-like activity and has high predictive and face validity (Porsolt et al. (1977) Nature 266:730; Borsini and Meli (1988) Psychopharmacology 94:147). The premise of the FST is that when rats are placed into a cylinder filled with water, they will initially try to escape, but over time will become immobile. This increased immobility reflects behavioral despair, modeling a depressive-like state.
Forced Swim Test (FST): In the FST trial, rats were placed in a circular plexiglass container filled with water, with no means of escape. Water temperature was maintained at 22-25° C. and changed for every animal. After an acclimation period, rats were timed for inactivity (failure to struggle), activity, swim time and climbing time. Day 1 consisted of a 15 min acclimation trial, and Day 2 (24 h later) consisted of the 5 min test. A time sampling procedure was employed where animals were observed every 5 sec and scored for immobility, swimming, or climbing. Fluoxetine (10 mg/kg, IP, Sigma Aldrich) or 0.9% sterile saline vehicle (vehicle 3× group) were administered 23.5, 5, and 1 h before testing in the FST. […] The experimenter was blinded to treatment.
Forced Swim Test: In the FST trial, rats were placed in a circular plexiglass container filled with water, with no means of escape. Water temperature was maintained at 22-25° C. and changed for every animal. After an acclimation period, rats were timed for inactivity (failure to struggle), activity, swim time and climbing time. Day 1 consisted of a 15 min acclimation trial, and Day 2 (24 h later) consisted of the 5 min test. A time sampling procedure was employed where animals were observed every 5 sec and scored for immobility, swimming, or climbing. Fluoxetine (10 mg/kg, IP, Sigma Aldrich) or 0.9% sterile saline vehicle (vehicle 3× group) were administered 23.5, 5, and 1 h before testing in the FST. 2C-B (2.5, 10, or 20 mg/kg, IP, Cayman Chemical) or 0.9% saline vehicle (vehicle 1× group) were administered 30 min prior to FST testing. The experimenter was blinded to treatment.
Drug Treatment: Fluoxetine (10 mg/kg, IP, Sigma Aldrich) or 0.9% sterile saline vehicle were administered 23.5, 5, and 1 h before testing in the FST. […] Control animals received fluoxetine alone, methylone alone, or saline vehicle.
Forced Swim Test: In the FST trial, rats were placed in a circular plexiglass container filled with water, with no means of escape. Water temperature was maintained at 22-25° C. and changed for every animal. After an acclimation period, rats were timed for inactivity (failure to struggle), activity, swim time and climbing time. The experimenter and scorer were blind to treatment group. Day 1 consisted of a 15 min acclimation trial, and Day 2 (24 h later) consisted of the 5 min test. A time sampling procedure was employed where animals were observed every 5 sec and scored for immobility, swimming, or climbing.
Control animals received saline vehicle. The dosing schedule and experimental design are found in FIG. 12A.
The FST was performed and scored by an experimenter blind to treatment group according to standard protocols and based on a “modified FST” procedure (Slattery and Cryan (2012) Nat Protoc, 7:1009). Briefly, rats were placed in a circular plexiglass container (29.2 cm diameter, 49.5 cm height) filled with water to a depth of 30 cm so rats could not support themselves by touching the bottom of the tank. Water was maintained at 22-25° C. and was changed for every animal. Day 1 (Training) consisted of a 15 min acclimation trial, and Day 2 (Testing, 24 h later) consisted of the 5 min test. […]

[2] = molecular target: 168 GPCRs (Homo sapiens, UniProt P08588); assay: β-arrestin based GPCR screen (PathHunter / GPCRmax), antagonist mode; settings: ADRB1, Antagonist
[3] = molecular target: 168 GPCRs (Homo sapiens, UniProt P47900); assay: as above
[4] = molecular target: 168 GPCRs (Homo sapiens, UniProt P30874); assay: as above
[5] = molecular target: 168 GPCRs (Homo sapiens, UniProt P46663); assay: as above; settings: BDKRB1, Antagonist
[6] = cited from earlier work
[7] = tested on: patients with a primary diagnosis of PTSD; assay: Case series with long-term follow-up (Example 5): CGI-I, durability, safety; format: in vivo, human
Source text: The patients were not given structured psychotherapy in conjunction with methylone treatment, which differs from recent studies of MDMA that emphasize the importance of a manualized psychedelic-assisted psychotherapy model.
No protected health information was disclosed, and no consent was obtained from patients for use of their archival data. Case narratives were systematically compiled from data collected as part of routine clinical work. Diagnoses were confirmed by an experienced clinician using semi-structured interviews. Baseline symptom severity was evaluated using the Clinical Global Impressions Scale-Severity (CGI-S). Symptom improvement was evaluated using the Clinical Global Impressions Scale-Improvement (CGI-I) following dosing. […] Because these case narratives were examined retrospectively from routine clinical care records, and not gathered prospectively in a research study, more specific validated rating scales for assessing PTSD symptoms were not available. Additionally, follow-up varied, with the length of follow-up ranging from one week (Case 2) to 15 years (Case 16).
Dosing summary: Methylone was administered orally. Other medications were not changed during methylone treatment. […] In several cases, treatment was continued, and, in some cases, the dose was further escalated in later sessions (see Table 5). Booster doses were included for 19 patients in one or more of the sessions. Starting doses were between 100 and 270 mg, and these as well as booster doses were selected based on clinical judgement.

[8] = tested on: healthy adult subjects; assay: Methylone case series, Cohort 1: safety and tolerability of a single dosing session; format: in vivo, human; settings: Cohort 1, 4 healthy subjects, total oral dose 790 or 870 mg in one session
[9] = across oral doses of 50 mg to 200 mg

168 GPCRs (Homo sapiens, UniProt P46663), sequence (P46663 whole entry): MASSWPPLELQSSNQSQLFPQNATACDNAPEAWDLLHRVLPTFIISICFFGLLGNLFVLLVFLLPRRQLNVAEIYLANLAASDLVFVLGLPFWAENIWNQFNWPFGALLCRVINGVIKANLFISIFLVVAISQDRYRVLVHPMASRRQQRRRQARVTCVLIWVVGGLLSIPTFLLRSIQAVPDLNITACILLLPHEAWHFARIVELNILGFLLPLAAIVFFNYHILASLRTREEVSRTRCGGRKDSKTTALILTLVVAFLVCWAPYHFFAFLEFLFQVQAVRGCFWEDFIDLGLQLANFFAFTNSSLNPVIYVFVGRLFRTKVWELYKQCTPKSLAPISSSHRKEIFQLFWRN
168 GPCRs (Homo sapiens, UniProt P30874), sequence (P30874 whole entry): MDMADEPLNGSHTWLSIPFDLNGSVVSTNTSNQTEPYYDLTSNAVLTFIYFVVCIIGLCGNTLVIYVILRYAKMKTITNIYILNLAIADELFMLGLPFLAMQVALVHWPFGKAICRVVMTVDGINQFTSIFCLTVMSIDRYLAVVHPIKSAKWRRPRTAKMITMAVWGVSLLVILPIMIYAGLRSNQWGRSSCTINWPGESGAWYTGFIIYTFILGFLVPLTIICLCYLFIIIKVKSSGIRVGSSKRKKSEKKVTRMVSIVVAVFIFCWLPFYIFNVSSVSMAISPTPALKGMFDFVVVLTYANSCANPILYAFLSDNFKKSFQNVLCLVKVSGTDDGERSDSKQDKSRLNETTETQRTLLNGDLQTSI
168 GPCRs (Homo sapiens, UniProt P47900), sequence (P47900 whole entry): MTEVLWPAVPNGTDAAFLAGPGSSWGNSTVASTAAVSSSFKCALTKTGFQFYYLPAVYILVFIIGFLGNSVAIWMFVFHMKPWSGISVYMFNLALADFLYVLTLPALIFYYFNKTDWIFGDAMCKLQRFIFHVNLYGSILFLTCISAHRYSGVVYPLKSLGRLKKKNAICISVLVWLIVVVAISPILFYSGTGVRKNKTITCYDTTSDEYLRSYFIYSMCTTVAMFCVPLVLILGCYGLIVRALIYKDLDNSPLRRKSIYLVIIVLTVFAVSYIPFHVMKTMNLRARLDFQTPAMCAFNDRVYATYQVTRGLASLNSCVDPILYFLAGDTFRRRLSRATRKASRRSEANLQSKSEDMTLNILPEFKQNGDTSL
168 GPCRs (Homo sapiens, UniProt P08588), sequence (P08588 whole entry): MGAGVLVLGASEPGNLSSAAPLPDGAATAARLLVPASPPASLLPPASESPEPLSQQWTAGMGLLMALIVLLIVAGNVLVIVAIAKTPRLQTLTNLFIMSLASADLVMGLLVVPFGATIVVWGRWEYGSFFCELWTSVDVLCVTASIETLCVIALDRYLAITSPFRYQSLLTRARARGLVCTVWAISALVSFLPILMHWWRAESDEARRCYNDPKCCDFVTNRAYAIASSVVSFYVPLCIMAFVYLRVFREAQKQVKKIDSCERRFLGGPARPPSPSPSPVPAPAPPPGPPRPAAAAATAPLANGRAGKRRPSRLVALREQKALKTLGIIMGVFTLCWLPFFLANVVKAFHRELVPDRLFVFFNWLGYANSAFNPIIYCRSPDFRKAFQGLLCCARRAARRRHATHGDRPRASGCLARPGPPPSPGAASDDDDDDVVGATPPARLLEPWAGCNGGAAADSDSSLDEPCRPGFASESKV

With CNC(C)C(=O)c1ccc2c(c1)OCO2 (centres unmarked) [methylone, 3,4-methylenedioxy-N-methylcathinone] the “climbing behavior (FST)” value ([1]; Example 8) was “significantly increased climbing behavior”, the “effectiveness in the FST” value ([1]; doses of 10 mg/kg or more) was “maximally effective” and the “antidepressant-like effect (FST), multiple lower doses” value ([1]; four […] IP doses 20.5, 8.5, 4.5 and 0.5 hours before testing) was “significant antidepressant-like effects”. The “climbing (FST)” value ([1]; methylone IP dose range, 30 min before testing) was “only increased at the lowest dose”, the “swimming (FST)” value ([1]; mid and high doses of methylone IP, 30 min before testing) was “significantly increased swimming” and the “antidepressant-like effect (FST) vs. vehicle” value ([1]; single dose 15 mg/kg PO, 2 hours before testing) was “significant antidepressant-like effect”. For the same compound, the “immobility (FST) vs. saline vehicle” value ([1]; single dose 5, 10, 15, 20 and 30 mg/kg IP, 30 min before testing) was “significantly reduced immobility”, the activity at 1 µM ([2]; 1 uM) was -0.8% and the activity at 10 µM ([2]; 10 uM) was -1.2%. The activity at 10 µM ([3]; P2RY1, Antagonist mode, 10 uM) was 14.9%, the activity at 1 µM ([3]; P2RY1, Antagonist, 1 uM) was 14.5% and the activity at 10 µM ([4]; SSTR2, Antagonist mode, 10 uM) was -4.2%. The activity at 1 µM ([4]; SSTR2, Antagonist, 1 uM) was -0.4%, the activity at 1 µM ([5]; 1 uM) was 2.8% and the activity at 10 µM ([5]; 10 uM) was 12.1%. For the same compound, the half-life [6, 9] was 6 to 7 h, the “time to reach maximum concentrations (Tmax)” value [6, 9] was 1 to 2 h and the “AUC10 hr, geometric mean” value ([6]; oral 50 mg, N = 3) was 725 ng·h/mL. For the same compound, the “Tmax, median” value ([6]; oral 50 mg, N = 3) was 1.5 h, the “Cmax, geometric mean” value ([6]; oral 100 mg, N = 6) was 283.9 ng/mL and the “Half-life, geometric mean” value ([6]; oral 100 mg, N = 6) was 6.0 h. For the same compound, the “Tmax, median” value ([6]; oral 100 mg, N = 6) was 2.5 h, the “AUC24 hr, geometric mean” value ([6]; oral 150 mg, N = 5) was 3165 ng·h/mL and the “AUCinf, geometric mean” value ([6]; oral 150 mg, N = 5) was 3509 ng·h/mL. For the same compound, the “Tmax, median” value ([6]; oral 150 mg, N = 5) was 2 h, the “Half-life, geometric mean” value ([6]; oral 200 mg, N = 7) was 6.5 h and the “Tmax, median” value ([6]; oral 200 mg, N = 7) was 2 h. The “discontinuation due to adverse events” value ([7]; 21 patients) was “no patients discontinued treatment due to adverse events”, the “total adverse events noted” value ([7]; in three of the 21 patients) was “four” and the “patients achieving CGI-I of 1 (very much improved)” value ([7]; of 21 patients) was 9 patients. For the same compound, the “patients achieving CGI-I of 2 (much improved)” value ([7]; of 21 patients) was 8 patients and the “adverse effects or after-effects” value [8] was “no adverse effects or after-effects were observed or reported”.
